Source: ChEMBL document CHEMBL2440076, “New triarylpyrazoles as broad-spectrum anticancer agents: design, synthesis, and biological evaluation” (Eur J Med Chem, 2013)

Legend:
[1] = system: U-251; test: Growth inhibition of human U251 cells assessed as cell growth at 10 uM after 48 hrs by sulforhodamine B assay; format: functional; conditions: U-251, 48 h, read-out: Activity
[2] = system: SR; test: Growth inhibition of human SR cells after 48 hrs by sulforhodamine B assay; format: functional
[3] = system: TK-10; test: Growth inhibition of human TK10 cells assessed as cell growth at 10 uM after 48 hrs by sulforhodamine B assay; format: functional; conditions: TK-10, 48 h, read-out: Activity
[4] = system: CAKI-1; test: Growth inhibition of human CAKI-1 cells after 48 hrs by sulforhodamine B assay; format: functional; conditions: CAKI-1, 48 h
[5] = system: UACC-257; test: Growth inhibition of human UACC257 cells after 48 hrs by sulforhodamine B assay; format: functional; conditions: UACC-257, 48 h
[6] = system: RXF 393; test: Growth inhibition of human RXF393 cells after 48 hrs by sulforhodamine B assay; format: functional; conditions: RXF 393, 48 h
[7] = system: SK-MEL-5; test: Growth inhibition of human SK-MEL-5 cells assessed as cell growth at 10 uM after 48 hrs by sulforhodamine B assay; format: functional; conditions: SK-MEL-5, 48 h, read-out: Activity
[8] = system: OVCAR-4; test: Growth inhibition of human OVCAR4 cells after 48 hrs by sulforhodamine B assay; format: functional; conditions: OVCAR-4, 48 h
[9] = system: RPMI-8226; test: Growth inhibition of human RPMI8226 cells assessed as cell growth at 10 uM after 48 hrs by sulforhodamine B assay; format: functional; conditions: RPMI-8226, 48 h, read-out: Activity
[10] = system: SW-620; test: Growth inhibition of human SW620 cells after 48 hrs by sulforhodamine B assay; format: functional; conditions: SW-620, 48 h
[11] = system: MCF7; test: Growth inhibition of human MCF7 cells after 48 hrs by sulforhodamine B assay; format: functional; conditions: MCF7, 48 h
[12] = system: Malme-3M; test: Growth inhibition of human MALME-3M cells assessed as cell growth at 10 uM after 48 hrs by sulforhodamine B assay; format: functional; conditions: read-out: Activity
[13] = system: KM12; test: Growth inhibition of human KM12 cells after 48 hrs by sulforhodamine B assay; format: functional, cell-based; conditions: KM12, 48 h
[14] = system: BT-549; test: Growth inhibition of human BT549 cells assessed as cell growth at 10 uM after 48 hrs by sulforhodamine B assay; format: functional; conditions: BT-549, 48 h, read-out: Activity
[15] = system: A549; test: Growth inhibition of human A549/ATCC cells assessed as cell growth at 10 uM after 48 hrs by sulforhodamine B assay; format: functional; conditions: A549, 48 h, read-out: Activity
[16] = system: SK-MEL-5; test: Growth inhibition of human SK-MEL-5 cells after 48 hrs by sulforhodamine B assay; format: functional; conditions: SK-MEL-5, 48 h
[17] = system: HOP-92; test: Growth inhibition of human HOP92 cells assessed as cell growth at 10 uM after 48 hrs by sulforhodamine B assay; format: functional; conditions: HOP-92, 48 h, read-out: Activity
[18] = system: SN12C; test: Growth inhibition of human SN12C cells assessed as cell growth at 10 uM after 48 hrs by sulforhodamine B assay; format: functional; conditions: read-out: Activity
[19] = system: KM12; test: Growth inhibition of human KM12 cells assessed as cell growth at 10 uM after 48 hrs by sulforhodamine B assay; format: functional; conditions: KM12, 48 h, read-out: Activity
[20] = system: HT-29; test: Growth inhibition of human HT-29 cells after 48 hrs by sulforhodamine B assay; format: functional; conditions: HT-29, 48 h
[21] = system: A498; test: Growth inhibition of human A498 cells after 48 hrs by sulforhodamine B assay; format: functional, cell-based; conditions: A498, 48 h
[22] = system: U-251; test: Growth inhibition of human U251 cells after 48 hrs by sulforhodamine B assay; format: functional; conditions: U-251, 48 h
[23] = system: NCI-H23; test: Growth inhibition of human NCI-H23 cells after 48 hrs by sulforhodamine B assay; format: functional; conditions: NCI-H23, 48 h
[24] = system: CAKI-1; test: Growth inhibition of human CAKI-1 cells assessed as cell growth at 10 uM after 48 hrs by sulforhodamine B assay; format: functional; conditions: CAKI-1, 48 h, read-out: Activity
[25] = system: HOP-62; test: Growth inhibition of human HOP62 cells assessed as cell growth at 10 uM after 48 hrs by sulforhodamine B assay; format: functional; conditions: HOP-62, 48 h, read-out: Activity
[26] = system: OVCAR-8; test: Growth inhibition of human OVCAR8 cells after 48 hrs by sulforhodamine B assay; format: functional; conditions: OVCAR-8, 48 h
[27] = system: ACHN; test: Growth inhibition of human ACHN cells after 48 hrs by sulforhodamine B assay; format: functional
[28] = system: SK-MEL-28; test: Growth inhibition of human SK-MEL-28 cells assessed as cell growth at 10 uM after 48 hrs by sulforhodamine B assay; format: functional; conditions: SK-MEL-28, 48 h, read-out: Activity
[29] = system: PC-3; test: Growth inhibition of human PC3 cells assessed as cell growth at 10 uM after 48 hrs by sulforhodamine B assay; format: functional; conditions: PC-3, 48 h, read-out: Activity
[30] = system: OVCAR-5; test: Growth inhibition of human OVCAR5 cells after 48 hrs by sulforhodamine B assay; format: functional; conditions: OVCAR-5, 48 h
[31] = system: NCI-H522; test: Growth inhibition of human NCI-H522 cells after 48 hrs by sulforhodamine B assay; format: functional; conditions: NCI-H522, 48 h
[32] = system: NCI-H23; test: Growth inhibition of human NCI-H23 cells assessed as cell growth at 10 uM after 48 hrs by sulforhodamine B assay; format: functional; conditions: NCI-H23, 48 h, read-out: Activity
[33] = system: SW-620; test: Growth inhibition of human SW620 cells assessed as cell growth at 10 uM after 48 hrs by sulforhodamine B assay; format: functional; conditions: SW-620, 48 h, read-out: Activity
[34] = system: CCRF-CEM; test: Growth inhibition of human CCRF-CEM cells after 48 hrs by sulforhodamine B assay; format: functional
[35] = system: HT-29; test: Growth inhibition of human HT-29 cells assessed as cell growth at 10 uM after 48 hrs by sulforhodamine B assay; format: functional; conditions: HT-29, 48 h, read-out: Activity
[36] = read-out: LC50 (the source's name)

## COc1cc(-c2nn(-c3cccc(NC(=O)Nc4cccc(C(F)(F)F)c4)c3)cc2-c2ccncc2)ccc1Cl
[1]
  growth at 10 µM: -82.2%
[2]
  GI50: 886 nM
  TGI: 2840 nM
[2]; [36]
  CC50: > 50 µM
[3]
  growth at 10 µM: 2.65%
[4]
  GI50: 1030 nM
  TGI: 3.51 µM
[4]; [36]
  CC50: > 50 µM
[5]
  GI50: 923 nM
  TGI: 2310 nM
[5]; [36]
  CC50: 7.58 µM
[6]
  GI50: 777 nM
  LC50 (concentration killing 50% of cells): 4.83 µM
  TGI: 1940 nM
[7]
  growth at 10 µM: -97.8%
[8]
  GI50: 1100 nM
  LC50 (concentration killing 50% of cells): > 50 µM
  TGI: 2100 nM
[9]
  growth at 10 µM: -14.8%
[10]
  GI50: 1230 nM
  TGI: 14.3 µM
[10]; [36]
  CC50: 50 µM
[11]
  GI50: 751 nM
  LC50: > 50 µM
  TGI: 7.72 µM
[12]
  growth at 10 µM: -32.1%
[13]
  GI50: 573 nM
  IC50: 570 nM
  TGI: 1980 nM
[13]; [36]
  CC50: > 50 µM
[14]
  growth at 10 µM: -15.4%
[15]
  growth at 10 µM: -14%
[16]
  GI50: 720 nM
  LC50 (concentration killing 50% of cells): 2680 nM
  TGI: 1390 nM
[17]
  growth at 10 µM: -33.6%
[18]
  growth at 10 µM: 7.22%
[19]
  growth at 10 µM: -27.8%
[20]
  GI50: 748 nM
  TGI: 1870 nM
[20]; [36]
  CC50: 4.67 µM
[21]
  GI50: 958 nM
  IC50: 960 nM
  TGI: 4.04 µM
[21]; [36]
  CC50: > 50 µM
[22]
  GI50: 645 nM
  LC50 (concentration killing 50% of cells): 2920 nM
  TGI: 1370 nM
[23]
  GI50: 1180 nM
  LC50: > 50 µM
  TGI: 3.41 µM
[24]
  growth at 10 µM: 11.5%
[25]
  growth at 10 µM: -29.9%
[26]
  GI50: 739 nM
  TGI: 2700 nM
[26]; [36]
  CC50: > 50 µM
[27]
  GI50: 656 nM
  TGI: 3.72 µM
[27]; [36]
  CC50: > 50 µM
[28]
  growth at 10 µM: -18.6%
[29]
  growth at 10 µM: -23%
[30]
  GI50: 1270 nM
  LC50 (concentration killing 50% of cells): > 50 µM
  TGI: 6.45 µM
[31]
  GI50: 714 nM
  LC50 (concentration killing 50% of cells): > 50 µM
  TGI: 2430 nM
[32]
  growth at 10 µM: -12.4%
[33]
  growth at 10 µM: 8.92%
[34]
  GI50: 945 nM
  LC50: > 50 µM
[35]
  growth at 10 µM: -64%
